# Publication PMC10002220, “In Vivo Reversal of P-Glycoprotein-Mediated Drug Resistance in a Breast Cancer Xenograft and in Leukemia Models Using a Novel, Potent, and Nontoxic Epicatechin EC31” (International Journal of Molecular Sciences, 2023)
# Like-named read-outs stand apart in the source and are kept apart here.
# Experiments:
# P-gp [1] = experiment: DOX efflux in P388ADR cells; assay type: cell-based, mouse; details: 1 µM modulator; after 180 min of efflux; P388ADR preloaded with 20 µM DOX
# Protocol: Figure 2 Effect of methylated catechin derivatives on intracellular DOX accumulation and DOX efflux in the P-gp-overexpressing cancer cells. […] Then, the cells were washed, and the intracellular DOX level was measured using flow cytometer. (A) LCC6MDR, (B) P388ADR, and (C) K562/P-gp. […] (D) In the efflux study, P388ADR cells were firstly incubated with 20 µM DOX for 45 min. […] At 60, 120, and 180 min, the cells were harvested, and the intracellular DOX level was measured. At 180 min, ** represents p < 0.01, and *** represents p < 0.001, both being relative to P388ADR incubated with DMSO only. […] N = 3 independent experiments. DMSO was used as a solvent control, and the highest amount used was 0.5%.
# We investigated if methylated catechin derivatives could inhibit P-gp-mediated drug efflux in P-gp-overexpressing cells. […] Without a modulator, intracellularly, the DOX level was maintained at 80% and 11% after 180 min for P388 and P388ADR cells, respectively (Figure 2D). […] After 180 min of efflux, the intracellular DOX level could be maintained at 61% (p < 0.001), 59% (p < 0.01), 44 % (p < 0.001), and 37%, respectively (Figure 2D).
# K562 cells = experiment: EC31 efflux in K562 cells; assay type: cell-based, human; details: after 150 min of efflux, preincubated with 1 µM
# Protocol: (§1) N = 3 independent experiments.
# After incubation, the medium was removed, and cells were washed with cold PBS twice. To the cell pellet, 300 μL of acetonitrile was added. The cells were sonicated for 10 min at 50 Hz using Intertek-CD-3800(A) sonicator. The lysed cells were then spun at 14,000 rpm for 10 min at room temperature. The supernatant containing EC31 was saved and was filtered with 0.45 µm syringe filter before UPLC-MS/MS analysis. For the efflux assay, the cells were preincubated with 1 μM EC31 at 37 °C for 2.5 h. The cells were then washed with PBS, were resuspended in drug-free medium, and were further incubated at 37 °C. The cells were collected at 0, 30, 60, and 150 min, respectively. The intracellular EC31 at different time points was analyzed as described in the Section 4.9.
# P388ADR leukemia = experiment: In vivo efficacy in reversing DOX resistance in murine leukemia P388ADR model; set-up: species or system B6D2F1 mice
# Protocol: (§2) Irradiated BDF1 mice were i.p. inoculated with P388ADR cells, which caused mouse leukemia. Irradiated NOD/SCID mice were i.v. inoculated with K562/P-gp cells, which caused human leukemia. The mice were randomized and treated with (1) control treatment (no treatment), (2) DOX alone, and (3) EC31 + DOX. Treatments were given as indicated by the arrows. The number of mice deaths in each treatment group was recorded every day. (A) The percent survival of mice infected with P388ADR. (B) The percent survival of mice infected with K562/P-gp. The mice median survival days and the increased lifespan (ILS) were analyzed with Log-rank (Mantel–COX) test in Prism 5.0. Student’s paired t test was conducted as indicated. ** represents p < 0.01, and *** represents p < 0.001. N.S. = not significant.
# About 1 × 10^6 cells of P388ADR were i.p. inoculated in male B6D2F1 mice aged 5–7 weeks old. There were 3 groups: (1) control group with no treatment, (2) DOX (3 mg/kg i.p.) alone, and (3) cotreatment with EC31 (60 mg/kg i.p.) being injected 1 h prior to DOX (3 mg/kg i.p.) administration. In group 2, DOX was i.p. injected on days 2, 6, 10, 14, and 18 only. In group 3, EC31 was i.p. injected on days 1, 2, 5, 6, 9, 10, 13, 14, 17, and 18, and DOX was i.p. injected on days 2, 6, 10, 14, and 18. Before each treatment, 1.5 mg/mL of DOX was freshly prepared using PBS. Mice survival and body weight were monitored during the study period.
# K562/P-gp leukemia = experiment: In vivo efficacy in reversing DOX resistance in human leukemia K562/P-gp model; set-up: species or system NOD/SCID mice
# Protocol: as §2
# The mice were randomly distributed into 3 groups: (1) control group (no treatment), (2) DOX (0.9 mg/kg i.v.) alone, and (3) cotreatment with EC31 (30 mg/kg i.p.) being injected 1 h prior to DOX (0.9 mg/kg i.v.) administration. EC31 and DOX were injected on days 7, 11, 19, 23, and 27. Before each treatment, 0.2 mg/mL of DOX was freshly prepared using PBS. Mice survival and body weight were monitored during the study period.
# MRP1 = details: Cpds at 1 μM; IC50 of DOX without/with modulator; cited from earlier work
# P-gp [2] = experiment: EC50 for reversing drug resistance in P388ADR cells (cell proliferation assay)
# P-gp [3] = target: T1, P-gp (Homo sapiens, UniProt P08183); experiment: Intracellular EC31 or PTX accumulation in LCC6 versus LCC6MDR cells; assay type: cell-based; set-up: expressed in transfected cells; host or cells: MDA435/LCC6MDR (human breast cancer line, gift of Dr. Robert Clarke); details: from accumulation and efflux in cells with or without P-gp
# T1 sequence (P08183 whole entry): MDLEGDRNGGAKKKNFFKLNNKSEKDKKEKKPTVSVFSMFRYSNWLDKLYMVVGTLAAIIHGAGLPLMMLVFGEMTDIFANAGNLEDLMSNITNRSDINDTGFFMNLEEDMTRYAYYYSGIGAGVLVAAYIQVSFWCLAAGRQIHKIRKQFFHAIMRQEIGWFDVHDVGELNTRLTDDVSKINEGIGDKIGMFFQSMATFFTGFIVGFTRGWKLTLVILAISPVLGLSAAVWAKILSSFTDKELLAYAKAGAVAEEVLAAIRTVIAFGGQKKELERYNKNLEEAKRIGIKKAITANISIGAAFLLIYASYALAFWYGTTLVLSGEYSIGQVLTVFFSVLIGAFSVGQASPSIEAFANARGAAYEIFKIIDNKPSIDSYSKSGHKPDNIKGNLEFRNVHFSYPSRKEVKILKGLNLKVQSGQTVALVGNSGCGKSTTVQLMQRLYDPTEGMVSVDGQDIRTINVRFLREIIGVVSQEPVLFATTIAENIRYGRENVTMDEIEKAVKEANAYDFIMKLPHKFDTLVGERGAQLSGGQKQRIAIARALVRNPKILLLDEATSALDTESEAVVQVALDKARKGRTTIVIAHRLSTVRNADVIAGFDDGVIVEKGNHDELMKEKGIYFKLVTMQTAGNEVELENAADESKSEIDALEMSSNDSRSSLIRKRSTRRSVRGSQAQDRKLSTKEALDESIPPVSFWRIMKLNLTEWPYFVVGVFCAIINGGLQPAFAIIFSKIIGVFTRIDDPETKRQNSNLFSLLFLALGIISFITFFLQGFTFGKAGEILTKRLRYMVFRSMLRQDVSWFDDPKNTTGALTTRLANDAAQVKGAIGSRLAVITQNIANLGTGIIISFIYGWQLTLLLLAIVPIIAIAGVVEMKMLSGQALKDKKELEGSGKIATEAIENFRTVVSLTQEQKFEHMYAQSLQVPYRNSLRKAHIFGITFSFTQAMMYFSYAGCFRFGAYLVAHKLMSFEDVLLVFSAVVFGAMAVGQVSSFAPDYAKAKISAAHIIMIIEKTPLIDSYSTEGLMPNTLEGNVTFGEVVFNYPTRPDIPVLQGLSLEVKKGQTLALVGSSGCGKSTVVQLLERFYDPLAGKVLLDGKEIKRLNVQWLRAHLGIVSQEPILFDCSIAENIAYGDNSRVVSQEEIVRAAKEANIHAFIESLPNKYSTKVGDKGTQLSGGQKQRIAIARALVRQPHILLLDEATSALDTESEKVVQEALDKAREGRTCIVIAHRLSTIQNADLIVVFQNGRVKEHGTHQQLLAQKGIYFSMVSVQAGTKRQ
# Source text: as §1
# P-gp [4] = target: T1, P-gp; set-up: expressed in transfected cells; host or cells: MDA435/LCC6MDR (human breast cancer line, gift of Dr. Robert Clarke); details: Cpds at 1 μM; IC50 of PTX without/with modulator; cited from earlier work
# [5] = EC31 30 mg/kg i.p. + DOX 0.9 mg/kg i.v.
structure (smiles),measurement,setting,value
COc1cc(OC)c2c(c1)O[C@H](c1ccc(OC)c(OC)c1)[C@H](OC(=O)c1ccc(F)c(NC(=O)c3cc(OC)c(OC)c(OC)c3)c1)C2 [EC31],Relative intracellular DOX level (%),P-gp [1],44%
same,EC31 remaining in cells,K562 cells,about 23%
same,median survival,P388ADR leukemia; EC31 60 mg/kg i.p. + DOX 3 mg/kg i.p.,21.5 days
same,ILS% (increase in lifespan),P388ADR leukemia; EC31 60 mg/kg i.p. + DOX 3 mg/kg i.p. compared to DOX alone,30.3%
same,median survival time,K562/P-gp leukemia; [5],37.0 days
same,prolongation of animal survival compared to DOX alone,K562/P-gp leukemia; [5],5 days
same,ILS% (increase in lifespan),K562/P-gp leukemia; EC31 30 mg/kg i.p. + DOX 0.9 mg/kg i.v. compared to DOX alone,15.6%
same,2008MRP1 MRP1-modulating activity RF (relative fold),MRP1,1.3
same,EC50,"P-gp [2]; read-out: EC50 for Reversing MDR, DOX Resistance, P388ADR, concentration that reduces IC50 of DOX by half",186 ± 31 nM
same,EC50,"P-gp [2]; read-out: EC50 for Reversing MDR, PTX Resistance, P388ADR, concentration that reduces IC50 of PTX by half",249 ± 18 nM
same,P-gp transport substrate status,P-gp [3],not a transport substrate of P-gp
same,LCC6MDR P-gp-modulating activity RF (relative fold),P-gp [4],69.3
